For the assay, the system named is P388 leukemia ip, CD2F1 mice, survival T/C. The assay is described as follows: NCI In Vivo Anticancer Drug Screen. Data for tumor model P388 Leukemia (intraperitoneal) in CD2F1 (CDF1) mice. The settings on record: endpoint: median survival time, higher = longer survival. Summed up: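 Mice carrying the transplanted tumor received test compound or vehicle. Survival was recorded in each group, and the value is the treated-group measurement divided by that of the vehicle-treated control group.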

Where [1] appears, read: dose: 100.0 mg/kg/injection, schedule: Q01DX001 (ip), vehicle: saline with Tween-80.
Where [2] appears, read: dose: 25.0 mg/kg/injection, schedule: Q01DX009 (ip), vehicle: Klucel (hydroxypropylcellulose) (HPC).
Setting [3] is: dose: 50.0 mg/kg/injection, schedule: Q01DX009 (ip), vehicle: Klucel (hydroxypropylcellulose) (HPC).
[4] abbreviates: dose: 100.0 mg/kg/injection, schedule: Q01DX009 (ip), vehicle: Klucel (hydroxypropylcellulose) (HPC).
[5] abbreviates: dose: 200.0 mg/kg/injection, schedule: Q01DX009 (ip), vehicle: Klucel (hydroxypropylcellulose) (HPC).
The mark [6] stands for this setting: dose: 100.0 mg/kg/injection, schedule: Q04DX003 (ip), vehicle: Klucel (hydroxypropylcellulose) (HPC).
Setting [7] is: dose: 200.0 mg/kg/injection, schedule: Q04DX003 (ip), vehicle: Klucel (hydroxypropylcellulose) (HPC).
Setting [8] is: dose: 60.0 mg/kg/injection, schedule: Q01DX005 (ip), vehicle: saline with Tween-80.
Setting [9] is: dose: 120.0 mg/kg/injection, schedule: Q01DX005 (ip), vehicle: saline with Tween-80.
Setting [10] is: dose: 240.0 mg/kg/injection, schedule: Q01DX005 (ip), vehicle: saline with Tween-80.
Where [11] appears, read: dose: 100.0 mg/kg/injection, schedule: Q01DX001 (ip), vehicle: Klucel (hydroxypropylcellulose) (HPC).
The mark [12] stands for this setting: dose: 400.0 mg/kg/injection, schedule: Q01DX001 (ip), vehicle: Klucel (hydroxypropylcellulose) (HPC).
[13] abbreviates: dose: 12.5 mg/kg/injection, schedule: Q01DX009 (ip), vehicle: saline with Tween-80.
The mark [14] stands for this setting: dose: 25.0 mg/kg/injection, schedule: Q01DX009 (ip), vehicle: saline with Tween-80.
The mark [15] stands for this setting: dose: 50.0 mg/kg/injection, schedule: Q01DX009 (ip), vehicle: saline with Tween-80.
The mark [16] stands for this setting: dose: 100.0 mg/kg/injection, schedule: Q01DX009 (ip), vehicle: saline with Tween-80.
The mark [17] stands for this setting: dose: 200.0 mg/kg/injection, schedule: Q01DX009 (ip), vehicle: saline with Tween-80.

Where “and” joins values, the source holds several entries; their conditions need not be identical. Equal values may be shown once. Inconclusive results and toxic doses are left out.

As to `O=C(O)/C(=C\c1c(Cl)n(-c2ccccc2)c2ccccc12)NC(=O)c1ccccc1`, the T/C under setting [1] is 92 % of control and the T/C (dose: 200.0 mg/kg/injection, schedule: Q01DX001 (ip), vehicle: saline with Tween-80) is 88 % of control.

For the molecule `N/C(=N\OC(=O)Nc1cccc(Cl)c1)C(Cl)(Cl)Cl`, the T/C is 98 % of control under setting [2], 113 % of control under setting [3] and 112 % of control under setting [4].

For the molecule `O=[N+]([O-])O.O=[N+]([O-])O.[Cu].c1cnc2c(c1)ccc1cccnc12`, the T/C was 101 % of control (dose: 1.56 mg/kg/injection, schedule: Q04DX002 (ip), vehicle: saline); 99 % of control and 106 % of control (dose: 6.25 mg/kg/injection, schedule: Q04DX002 (ip), vehicle: saline).

As for `CC1=C2CC(C)(C)/C=C\C(=O)/C(C)=C\C3=CC(C)(O)CC3(O2)C1=O` (configuration not stated), the T/C reads like this: (dose: 0.92 mg/kg/injection, schedule: Q01DX009 (ip), vehicle: saline with Tween-80) 102 % of control; (dose: 1.25 mg/kg/injection, schedule: Q01DX009 (ip), vehicle: Klucel (hydroxypropylcellulose) (HPC)) 109 % of control; (dose: 1.84 mg/kg/injection, schedule: Q01DX009 (ip), vehicle: saline with Tween-80) 98 % of control; (dose: 2.5 mg/kg/injection, schedule: Q01DX009 (ip), vehicle: Klucel (hydroxypropylcellulose) (HPC)) 120 % of control; (dose: 3.67 mg/kg/injection, schedule: Q01DX009 (ip), vehicle: saline with Tween-80) 116 % of control; (dose: 5.0 mg/kg/injection, schedule: Q01DX009 (ip), vehicle: Klucel (hydroxypropylcellulose) (HPC)) 118 % of control. Further, the T/C was 118 % of control (dose: 7.34 mg/kg/injection, schedule: Q01DX009 (ip), vehicle: saline with Tween-80) and 120 % of control (dose: 10.0 mg/kg/injection, schedule: Q01DX009 (ip), vehicle: Klucel (hydroxypropylcellulose) (HPC)).

Turning to `CSc1cc(C)[o+]c(C)c1`, the T/C was 101 % of control under setting [2]; 113 % of control and 92 % of control under setting [3]; 106 % of control and 107 % of control under setting [4]; 122 % of control under setting [5].

Regarding `S=C1SCCCN1c1ccccc1`, the T/C under setting [6] was 100 % of control and the T/C under setting [7] was 110 % of control.

For the molecule `Cc1ccc(C2C(C#N)C(=O)NC(=O)C2C#N)cc1` (configuration not stated), the T/C is 100 % of control under setting [3], 108 % of control under setting [4] and 99 % of control under setting [5].

Regarding `N#C/C(=C/c1ccccc1)CBr`, the T/C under setting [1] is 95 % of control.

Take `C[N+](C)(C)CC(=O)NNC(=O)CCn1[nH]c(=O)c(Cl)c(Cl)c1=O`: the T/C is 104 % of control under setting [8], 99 % of control under setting [9] and 97 % of control under setting [10].

Take `C[CH2][Sn][CH2]C.O=C(CC(=O)c1ccccc1)c1ccccc1.O=C(CC(=O)c1ccccc1)c1ccccc1`: the T/C runs as follows: (dose: 12.5 mg/kg/injection, schedule: Q01DX001 (ip), vehicle: Klucel (hydroxypropylcellulose) (HPC)) 115 % of control; (dose: 25.0 mg/kg/injection, schedule: Q01DX001 (ip), vehicle: Klucel (hydroxypropylcellulose) (HPC)) 111 % of control; (dose: 50.0 mg/kg/injection, schedule: Q01DX001 (ip), vehicle: Klucel (hydroxypropylcellulose) (HPC)) 115 % of control; under setting [11], 110 % of control; under setting [12], 115 % of control.

In the case of `c1cc(Cc2ccsc2)cs1`, the T/C by setting is: under setting [8], 104 % of control; under setting [9], 104 % of control; under setting [10], 106 % of control.

As to `O=c1oc2c(c(N(c3ccccc3)c3ccccc3)c1Cl)CSc1ccccc1-2`, under “dose: 100.0 mg/kg/injection, schedule: Q04DX003 (ip), vehicle: saline with Tween-80”, the T/C is 90 % of control.

As to `C/C(=N\N=C(N)N)c1ccc2c(c1)Cc1ccccc1-2`, the T/C reads like this: (dose: 25.0 mg/kg/injection, schedule: Q04DX002 (ip), vehicle: saline with Tween-80) 101 % of control; (dose: 50.0 mg/kg/injection, schedule: Q04DX002 (ip), vehicle: saline with Tween-80) 103 % of control.

As for `CN(C(=O)c1ccc(N)cc1)C1CCN(C2CCCCC2)C1` (configuration not stated), the T/C by setting is: under setting [3], 103 % of control; under setting [4], 101 % of control.

Take `N#CC1C(=O)NC(=S)NC1c1ccc(Cl)c(Cl)c1` (configuration not stated): the T/C runs as follows: under setting [3], 100 % of control; under setting [4], 95 % of control; under setting [5], 95 % of control.

On to `Cc1ccc(C(=O)[Se][Se]C(=O)c2ccc(C)cc2)cc1`, for which the T/C runs as follows: (dose: 6.25 mg/kg/injection, schedule: Q01DX009 (ip), vehicle: saline with Tween-80) 98 % of control; under setting [13], 117 % of control; under setting [14], 104 % of control and 112 % of control.

Take `O=c1c(N=Nc2ccccc2Cl)c(O)n(-c2ccccc2Cl)c(=S)n1-c1ccc(Cl)cc1`: the T/C under setting [11] was 109 % of control; the T/C (dose: 200.0 mg/kg/injection, schedule: Q01DX001 (ip), vehicle: Klucel (hydroxypropylcellulose) (HPC)) is 104 % of control; the T/C under setting [12] was 96 % of control.

`[O-]/[N+](=C\c1c(Cl)cccc1Cl)CC1(O)CCCCC1`: the T/C is 96 % of control under setting [15], 90 % of control under setting [16] and 99 % of control under setting [17].

For the molecule `[O-][N+]12CCCCC1C1CC(C2)C2CCCC(c3ccccc3)N2C1` (configuration not stated), the T/C reads like this: (dose: 12.5 mg/kg/injection, schedule: Q01DX009 (ip), vehicle: Klucel (hydroxypropylcellulose) (HPC)) 101 % of control and 105 % of control and 116 % of control; under setting [2], 103 % of control and 112 % of control and 114 % of control.

For `CC(=O)O.CC(=O)[O-].CC(=O)[O-].[Co+3].[NH-]CC[NH-].[NH-]CC[NH-]`, for the setting “dose: 100.0 mg/kg/injection, schedule: Q01DX009 (ip), vehicle: saline”, the T/C is 100 % of control.

For `CCOP(=S)(N/N=C/c1ccc(Br)s1)OCC`, the T/C reads like this: (dose: 50.0 mg/kg/injection, schedule: Q01DX005 (ip), vehicle: Klucel (hydroxypropylcellulose) (HPC)) 101 % of control; (dose: 100.0 mg/kg/injection, schedule: Q01DX005 (ip), vehicle: Klucel (hydroxypropylcellulose) (HPC)) 106 % of control; (dose: 200.0 mg/kg/injection, schedule: Q01DX005 (ip), vehicle: Klucel (hydroxypropylcellulose) (HPC)) 104 % of control.

As to `Nc1ncnc2nc(-c3ccc(OCc4ccccc4)cc3)[nH]c12`, the T/C is 101 % of control (dose: 100.0 mg/kg/injection, schedule: Q01DX001 (ip), vehicle: saline); 94 % of control (dose: 200.0 mg/kg/injection, schedule: Q01DX001 (ip), vehicle: saline); 98 % of control (dose: 400.0 mg/kg/injection, schedule: Q01DX001 (ip), vehicle: saline).

For the molecule `COc1cc(C[C@H]2[C@H]([C@H](O)c3ccc4c(c3)OCO4)C(=O)O[C@@H]2CO)cc(OC)c1OC`, the T/C was 105 % of control (dose: 5.0 mg/kg/injection, schedule: Q04DX002 (ip), vehicle: saline with Tween-80); 102 % of control (dose: 10.0 mg/kg/injection, schedule: Q04DX002 (ip), vehicle: saline with Tween-80); 102 % of control (dose: 20.0 mg/kg/injection, schedule: Q04DX002 (ip), vehicle: saline with Tween-80).

Regarding `CS(=O)(=O)ON1C(=O)c2ccccc2C1=O`, the T/C by setting is: (dose: 25.0 mg/kg/injection, schedule: Q04DX003 (ip), vehicle: Klucel (hydroxypropylcellulose) (HPC)) 104 % of control and 108 % of control; (dose: 50.0 mg/kg/injection, schedule: Q04DX003 (ip), vehicle: Klucel (hydroxypropylcellulose) (HPC)) 105 % of control and 110 % of control; under setting [6], 103 % of control and 95 % of control; under setting [7], 100 % of control.

Turning to `CCOC(=O)CSc1ccc(C)cc1C(O)(C(F)(F)F)C(F)(F)F`, the T/C under setting [13] was 98 % of control; the T/C under setting [14] is 99 % of control; the T/C under setting [15] was 108 % of control; the T/C under setting [16] was 99 % of control; the T/C under setting [17] is 101 % of control.

For `COCOc1cccc2c1CCC2`, the T/C reads like this: (dose: 50.0 mg/kg/injection, schedule: Q01DX005 (ip), vehicle: saline with Tween-80) 100 % of control; (dose: 100.0 mg/kg/injection, schedule: Q01DX005 (ip), vehicle: saline with Tween-80) 100 % of control; (dose: 200.0 mg/kg/injection, schedule: Q01DX005 (ip), vehicle: saline with Tween-80) 100 % of control.

The values are drawn from PubChem BioAssay AID330 (DTP/NCI, 2004).
